What was measured:
[1] = molecular target: human EGFR (native sequence) (Homo sapiens, UniProt P00533); assay: Kinase inhibition, human EGFR (native sequence); type: biochemical; details: 10 μM ATP; 10 pt curves, 3 μM top concentration (singlicates)
Description: (§1) Kinase inhibitory activity of the compounds was measured against human EGFR (native sequence) and against EGFR bearing the L858R mution and the L858R/T790M double mutation (EGFR, L858R, and L858R/T790M, respectively in Table 1). Additional assays can be conducted with EGFR deletion mutants such as delE746-A750 with or without the additional T790M mutation. Assay conditions included 10 pt curves with 3 μM top concentration (singlicates) and 10 μM ATP.

[2] = molecular target: EGFR bearing the L858R mution (Homo sapiens, UniProt P00533, L858R); assay: Kinase inhibition, EGFR L858R; type: biochemical; details: 10 μM ATP; 10 pt curves, 3 μM top concentration (singlicates)
Chain of EGFR bearing the L858R mution (P00533 25-1210 L858R): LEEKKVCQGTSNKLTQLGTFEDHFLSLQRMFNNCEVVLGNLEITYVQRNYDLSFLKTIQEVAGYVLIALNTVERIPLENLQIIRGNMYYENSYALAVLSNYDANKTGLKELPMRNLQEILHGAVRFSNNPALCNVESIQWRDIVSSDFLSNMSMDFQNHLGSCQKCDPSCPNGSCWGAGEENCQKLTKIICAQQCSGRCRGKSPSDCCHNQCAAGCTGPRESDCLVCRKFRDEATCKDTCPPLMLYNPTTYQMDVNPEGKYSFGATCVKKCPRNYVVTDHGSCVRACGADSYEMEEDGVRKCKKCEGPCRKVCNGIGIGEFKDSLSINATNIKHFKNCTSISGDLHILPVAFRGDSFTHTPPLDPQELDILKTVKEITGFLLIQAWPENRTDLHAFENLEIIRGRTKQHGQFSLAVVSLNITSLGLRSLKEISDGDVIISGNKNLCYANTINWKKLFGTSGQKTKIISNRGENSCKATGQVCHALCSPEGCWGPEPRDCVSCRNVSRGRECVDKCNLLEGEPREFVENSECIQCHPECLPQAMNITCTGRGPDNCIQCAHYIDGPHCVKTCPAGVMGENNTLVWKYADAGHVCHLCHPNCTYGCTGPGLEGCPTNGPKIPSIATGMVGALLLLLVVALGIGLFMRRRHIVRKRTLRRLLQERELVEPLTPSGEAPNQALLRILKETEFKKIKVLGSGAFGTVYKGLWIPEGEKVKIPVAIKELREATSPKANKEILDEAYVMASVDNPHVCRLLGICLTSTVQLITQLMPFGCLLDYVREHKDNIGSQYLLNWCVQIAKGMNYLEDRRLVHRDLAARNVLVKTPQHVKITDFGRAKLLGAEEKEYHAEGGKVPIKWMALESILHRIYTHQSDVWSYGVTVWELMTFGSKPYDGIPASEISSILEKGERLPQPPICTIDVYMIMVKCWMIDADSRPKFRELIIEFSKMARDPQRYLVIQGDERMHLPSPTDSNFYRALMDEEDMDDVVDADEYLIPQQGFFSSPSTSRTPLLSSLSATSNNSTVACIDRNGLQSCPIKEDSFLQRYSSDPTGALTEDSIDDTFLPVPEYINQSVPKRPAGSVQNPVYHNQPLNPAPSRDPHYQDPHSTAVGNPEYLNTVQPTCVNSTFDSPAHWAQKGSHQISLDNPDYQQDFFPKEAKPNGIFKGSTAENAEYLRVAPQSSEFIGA
Description: as §1

[3] = molecular target: EGFR bearing the L858R/T790M double mutation (Homo sapiens, UniProt P00533, L858R/T790M); assay: Kinase inhibition, EGFR L858R/T790M; type: biochemical; details: 10 μM ATP; 10 pt curves, 3 μM top concentration (singlicates)
Chain of EGFR bearing the L858R/T790M double mutation (P00533 25-1210 T790M/L858R): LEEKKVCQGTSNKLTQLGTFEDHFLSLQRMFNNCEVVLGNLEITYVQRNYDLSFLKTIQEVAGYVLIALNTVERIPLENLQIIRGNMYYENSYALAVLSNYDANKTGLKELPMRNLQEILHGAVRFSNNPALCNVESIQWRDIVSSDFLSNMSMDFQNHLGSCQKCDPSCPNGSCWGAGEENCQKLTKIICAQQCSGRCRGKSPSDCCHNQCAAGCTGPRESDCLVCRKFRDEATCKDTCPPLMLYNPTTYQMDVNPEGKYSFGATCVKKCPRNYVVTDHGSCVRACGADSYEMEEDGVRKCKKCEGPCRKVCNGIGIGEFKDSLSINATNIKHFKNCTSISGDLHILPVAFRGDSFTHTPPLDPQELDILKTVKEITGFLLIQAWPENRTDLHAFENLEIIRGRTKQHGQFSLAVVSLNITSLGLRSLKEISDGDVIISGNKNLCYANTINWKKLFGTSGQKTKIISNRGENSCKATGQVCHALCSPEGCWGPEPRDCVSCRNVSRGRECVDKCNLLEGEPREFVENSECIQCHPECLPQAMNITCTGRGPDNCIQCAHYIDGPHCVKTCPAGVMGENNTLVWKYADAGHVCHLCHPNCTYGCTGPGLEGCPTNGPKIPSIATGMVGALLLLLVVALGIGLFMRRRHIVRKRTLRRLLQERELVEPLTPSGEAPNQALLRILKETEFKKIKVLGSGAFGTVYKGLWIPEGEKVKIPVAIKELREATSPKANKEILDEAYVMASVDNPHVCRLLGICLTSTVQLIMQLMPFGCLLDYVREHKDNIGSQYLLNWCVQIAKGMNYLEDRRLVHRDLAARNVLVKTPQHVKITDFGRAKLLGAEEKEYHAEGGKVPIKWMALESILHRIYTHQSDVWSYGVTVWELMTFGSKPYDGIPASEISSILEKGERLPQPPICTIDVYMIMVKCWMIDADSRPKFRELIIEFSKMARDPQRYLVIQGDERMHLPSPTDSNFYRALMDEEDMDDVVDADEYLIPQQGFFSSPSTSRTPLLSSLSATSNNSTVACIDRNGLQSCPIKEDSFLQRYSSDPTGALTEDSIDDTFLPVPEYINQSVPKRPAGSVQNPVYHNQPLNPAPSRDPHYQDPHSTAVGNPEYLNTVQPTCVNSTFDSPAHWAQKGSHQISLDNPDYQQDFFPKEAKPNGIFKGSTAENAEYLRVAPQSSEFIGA
Description: as §1

[4] = system: BAF3 PARENTAL; assay: Cell proliferation (MTT), BAF3 parental; type: cell-based; details: Mus musculus
Description: (§2) We also assessed the antiproliferative activity of compounds of Formula (I) against BaF3 cells expressing the target EGFR mutations or control (i.e., cell lines expressing wildtype EGFR). Assays were conducted using MTT.

[5] = molecular target: BAF3 EGFR DEL T790M PURO POOL (Homo sapiens, UniProt P00533, DEL746-750/T790M, cells depend on it); assay: Cell proliferation (MTT), BAF3 EGFR DEL T790M; type: cell-based
Chain of BAF3 EGFR DEL T790M PURO POOL (P00533 with tags, fused parts or gaps DEL746-750/T790M): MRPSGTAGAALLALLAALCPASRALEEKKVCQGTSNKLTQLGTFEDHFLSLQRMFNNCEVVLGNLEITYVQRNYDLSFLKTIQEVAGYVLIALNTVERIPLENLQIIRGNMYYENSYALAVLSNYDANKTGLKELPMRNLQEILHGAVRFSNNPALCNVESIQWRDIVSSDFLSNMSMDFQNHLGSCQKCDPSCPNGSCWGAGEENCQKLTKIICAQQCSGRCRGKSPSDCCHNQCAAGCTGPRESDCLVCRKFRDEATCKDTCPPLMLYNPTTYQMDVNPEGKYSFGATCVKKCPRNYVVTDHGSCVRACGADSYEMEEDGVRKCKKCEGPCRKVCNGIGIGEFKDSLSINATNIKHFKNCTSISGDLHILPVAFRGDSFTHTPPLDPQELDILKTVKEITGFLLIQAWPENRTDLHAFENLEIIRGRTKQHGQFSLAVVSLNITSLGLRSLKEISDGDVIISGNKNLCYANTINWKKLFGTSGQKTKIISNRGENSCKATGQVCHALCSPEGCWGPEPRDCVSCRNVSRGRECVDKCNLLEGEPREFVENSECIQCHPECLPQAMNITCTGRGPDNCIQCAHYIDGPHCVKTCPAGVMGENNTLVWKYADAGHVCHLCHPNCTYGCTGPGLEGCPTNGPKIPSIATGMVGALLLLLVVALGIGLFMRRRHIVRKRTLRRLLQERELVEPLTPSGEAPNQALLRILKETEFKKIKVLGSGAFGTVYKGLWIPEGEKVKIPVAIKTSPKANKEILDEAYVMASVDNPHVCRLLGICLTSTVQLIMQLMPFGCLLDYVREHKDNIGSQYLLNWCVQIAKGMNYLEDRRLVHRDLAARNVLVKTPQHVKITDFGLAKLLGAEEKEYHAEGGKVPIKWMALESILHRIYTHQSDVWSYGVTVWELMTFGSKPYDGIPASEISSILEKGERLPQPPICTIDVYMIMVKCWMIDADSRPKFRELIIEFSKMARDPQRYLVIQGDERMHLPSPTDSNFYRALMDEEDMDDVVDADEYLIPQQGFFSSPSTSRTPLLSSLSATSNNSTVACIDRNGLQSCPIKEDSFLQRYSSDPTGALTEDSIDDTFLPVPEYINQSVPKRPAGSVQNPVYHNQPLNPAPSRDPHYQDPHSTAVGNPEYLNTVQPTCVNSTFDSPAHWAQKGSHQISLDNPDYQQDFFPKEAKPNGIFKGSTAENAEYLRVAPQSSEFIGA
Description: as §2

[6] = system: BAF3 EGFR L858R-T790M PURO POOL; assay: Cell proliferation (MTT), BAF3 EGFR L858R-T790M; type: cell-based; details: Ba/F3 EGFR
Description: as §2

Chain of human EGFR (native sequence) (P00533 25-1210): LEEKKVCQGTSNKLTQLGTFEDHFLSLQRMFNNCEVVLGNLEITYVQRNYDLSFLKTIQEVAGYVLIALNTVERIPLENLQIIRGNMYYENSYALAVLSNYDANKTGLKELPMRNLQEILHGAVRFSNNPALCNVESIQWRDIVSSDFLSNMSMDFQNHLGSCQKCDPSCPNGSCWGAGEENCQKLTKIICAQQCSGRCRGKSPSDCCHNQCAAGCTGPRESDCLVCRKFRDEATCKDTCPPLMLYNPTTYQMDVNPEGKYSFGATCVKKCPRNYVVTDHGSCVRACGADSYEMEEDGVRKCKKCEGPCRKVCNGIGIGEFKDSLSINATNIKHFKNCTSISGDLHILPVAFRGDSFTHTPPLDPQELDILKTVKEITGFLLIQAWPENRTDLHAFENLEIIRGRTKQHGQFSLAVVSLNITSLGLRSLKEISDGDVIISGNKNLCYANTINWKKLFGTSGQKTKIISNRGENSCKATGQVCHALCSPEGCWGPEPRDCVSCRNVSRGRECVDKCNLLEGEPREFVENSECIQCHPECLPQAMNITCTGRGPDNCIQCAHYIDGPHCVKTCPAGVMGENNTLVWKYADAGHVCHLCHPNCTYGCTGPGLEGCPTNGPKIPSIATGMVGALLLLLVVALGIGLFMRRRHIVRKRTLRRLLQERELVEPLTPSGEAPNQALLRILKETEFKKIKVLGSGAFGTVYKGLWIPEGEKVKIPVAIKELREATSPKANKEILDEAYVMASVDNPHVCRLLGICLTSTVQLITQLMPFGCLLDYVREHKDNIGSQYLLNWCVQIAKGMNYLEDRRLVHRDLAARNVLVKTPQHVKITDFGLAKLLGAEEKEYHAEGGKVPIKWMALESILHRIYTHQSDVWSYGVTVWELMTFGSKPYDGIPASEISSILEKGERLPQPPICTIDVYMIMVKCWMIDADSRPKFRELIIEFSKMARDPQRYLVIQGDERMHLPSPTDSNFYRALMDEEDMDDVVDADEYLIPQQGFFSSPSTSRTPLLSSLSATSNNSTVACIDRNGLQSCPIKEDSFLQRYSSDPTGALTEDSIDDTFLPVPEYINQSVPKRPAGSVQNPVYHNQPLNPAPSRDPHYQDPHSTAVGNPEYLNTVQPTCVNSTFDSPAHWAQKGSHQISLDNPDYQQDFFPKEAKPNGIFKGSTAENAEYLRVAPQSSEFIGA

SMILES | IC50 [1] | IC50 [2] | IC50 [3] | IC50 [4] | IC50 [5] | IC50 [6]
C=CC(=O)Nc1cc(Nc2ncc(Cl)c(Nc3ccc(F)cc3P(C)(C)=O)n2)c(OC)cc1F [Example 55, N-(5-((5-chloro-4-((2-(dimethylphosphoryl)-4-fluorophenyl)amino)pyrimidin-2-yl)amino)-2-fluoro-4-methoxyphenyl)acrylamide] | 51 to 100 nM | < 51 nM | < 51 nM | ≥ 250 nM | < 51 nM | < 51 nM
C=CC(=O)Nc1cc(Nc2ncc(Cl)c(Nc3ccccc3P(C)(C)=O)n2)c(OC)cc1OC1CCOC1 (centres unmarked) [Example 24, N-(5-((5-chloro-4-((2-(dimethylphosphoryl)phenyl)amino)pyrimidin-2-yl)amino)-4-methoxy-2-((tetrahydrofuran-3-yl)oxy)phenyl)acrylamide] | ≥ 250 nM | < 51 nM | < 51 nM | ≥ 250 nM | ≥ 250 nM | 101 to 250 nM
C=CC(=O)Nc1cc(Nc2ncc(Cl)c(Nc3ccccc3P(C)(C)=O)n2)c(OC)cc1N(C)CCCN(C)C [Example 34, N-(5-((5-chloro-4-((2-(dimethylphosphoryl)phenyl)amino)pyrimidin-2-yl)amino)-2-((3-(dimethylamino)propyl)(methyl)amino)-4-methoxyphenyl)acrylamide] | ≥ 250 nM | 101 to 250 nM | 51 to 100 nM | ≥ 250 nM | < 51 nM | 101 to 250 nM
C=C(C)C(=O)Nc1ccc(OC)c(Nc2ncc(Cl)c(Nc3ccccc3P(C)(C)=O)n2)c1 [Example 5c, N-(3-((5-chloro-4-((2-(dimethylphosphoryl)phenyl)amino)pyrimidin-2-yl)amino)-4-methoxyphenyl)methacrylamide] | ≥ 250 nM | ≥ 250 nM | ≥ 250 nM | ≥ 250 nM | 101 to 250 nM | ≥ 250 nM
C=CC(=O)Nc1cccc(Oc2nc(Nc3ccc(P(C)(C)=O)cc3OC)ncc2Cl)c1 [Example 9, N-(3-((5-chloro-2-((4-(dimethylphosphoryl)-2-methoxyphenyl)amino)pyrimidin-4-yl)oxy)phenyl)acrylamide] | 101 to 250 nM | < 51 nM | < 51 nM | ≥ 250 nM | 51 to 100 nM | 51 to 100 nM
C=CC(=O)Nc1cccc(Nc2ncc(Cl)c(Nc3ccccc3P(C)(C)=O)n2)c1 [Example 5d, N-(3-((5-chloro-4-((2-(dimethylphosphoryl)phenyl)amino)pyrimidin-2-yl)amino)phenyl)acrylamide] | 101 to 250 nM | < 51 nM | < 51 nM | 51 to 100 nM | < 51 nM | < 51 nM
CC#CC(=O)Nc1ccc(OC)c(Nc2ncc(Cl)c(Nc3ccccc3P(C)(C)=O)n2)c1 [Example 6b, N-(3-((5-chloro-4-((2-(dimethylphosphoryl)phenyl)amino)pyrimidin-2-yl)amino)-4-methoxyphenyl)but-2-ynamide] | ≥ 250 nM | 51 to 100 nM | ≥ 250 nM | ≥ 250 nM | < 51 nM | 51 to 100 nM
C=C(CN(C(C)C)C(C)C)C(=O)Nc1ccc(OC)c(Nc2ncc(Cl)c(Nc3ccccc3P(C)(C)=O)n2)c1 [Example 35, N-(3-((5-chloro-4-((2-(dimethylphosphoryl)phenyl)amino)pyrimidin-2-yl)amino)-4-methoxyphenyl)-2-((diisopropylamino)methyl)acrylamide] | < 51 nM | < 51 nM | < 51 nM | ≥ 250 nM | < 51 nM | < 51 nM
C=CC(=O)Nc1cc(Nc2ncc(Cl)c(Nc3ccccc3P(C)(C)=O)n2)c(OC)cc1OCC(COC)N(C)C (centres unmarked) [Example 37, N-(5-((5-chloro-4-((2-(dimethylphosphoryl)phenyl)amino)pyrimidin-2-yl)amino)-2-(2-(dimethylamino)-3-methoxypropoxy)-4-methoxyphenyl)acrylamide] | < 51 nM | < 51 nM | < 51 nM | ≥ 250 nM | < 51 nM | < 51 nM
C=CC(=O)Nc1cc(Nc2ncc(Cl)c(Nc3ccccc3P(C)(C)=O)n2)c(OC)cc1CCCN(CC)CC [Example 40, N-(5-((5-chloro-4-((2-(dimethylphosphoryl)phenyl)amino)pyrimidin-2-yl)amino)-2-(3-(diethylamino)propyl)-4-methoxyphenyl)acrylamide] | < 51 nM | < 51 nM | < 51 nM | ≥ 250 nM | < 51 nM | ≥ 250 nM
C=CC(=O)N[C@H]1CCC[C@@H](Nc2ncc(Cl)c(Nc3ccccc3P(C)(C)=O)n2)C1 (stereo in doubt) [Example 43, N-(3-((5-chloro-4-((2-(dimethylphosphoryl)phenyl)amino)pyrimidin-2-yl)amino)cyclohexyl)acrylamide] | ≥ 250 nM | ≥ 250 nM | ≥ 250 nM | ≥ 250 nM | ≥ 250 nM | –
C=CC(=O)Nc1ccc(Nc2ncc(Cl)c(Nc3ccccc3P(C)(C)=O)n2)c(OC)c1 [Example 45, N-(4-((5-chloro-4-((2-(dimethylphosphoryl)phenyl)amino)pyrimidin-2-yl)amino)-3-methoxyphenyl)acrylamide] | ≥ 250 nM | 101 to 250 nM | ≥ 250 nM | ≥ 250 nM | ≥ 250 nM | –
C=CC(=O)N[C@@H]1CCC[C@@H](Nc2ncc(Cl)c(Nc3ccccc3P(C)(C)=O)n2)C1 (racemic) [Example 42, rac-N-((1R,3R)-3-((5-chloro-4-((2-(dimethylphosphoryl)phenyl)amino)pyrimidin-2-yl)amino)cyclohexyl)acrylamide] | ≥ 250 nM | ≥ 250 nM | ≥ 250 nM | ≥ 250 nM | ≥ 250 nM | –
COc1ccc(NC(=O)C=C(C)C)cc1Nc1ncc(Cl)c(Nc2ccccc2P(C)(C)=O)n1 [Example 5b, N-(3-((5-chloro-4-((2-(dimethylphosphoryl)phenyl)amino)pyrimidin-2-yl)amino)-4-methoxyphenyl)-3-methylbut-2-enamide] | – | ≥ 250 nM | ≥ 250 nM | ≥ 250 nM | ≥ 250 nM | –
COc1ccc(NC(=O)/C=C/CN2CCN(C)CC2)cc1Nc1ncc(Cl)c(Nc2ccccc2P(C)(C)=O)n1 [Example 4, (E)-N-(3-((5-chloro-4-((2-(dimethylphosphoryl)phenyl)amino)pyrimidin-2-yl)amino)-4-methoxyphenyl)-4-(4-methylpiperazin-1-yl)but-2-enamide] | ≥ 250 nM | < 51 nM | 101 to 250 nM | ≥ 250 nM | ≥ 250 nM | –
COc1ccc(NC(=O)/C=C/CN2CCOCC2)cc1Nc1ncc(Cl)c(Nc2ccccc2P(C)(C)=O)n1 [Example 3, (E)-N-(3-((5-chloro-4-((2-(dimethylphosphoryl)phenyl)amino)pyrimidin-2-yl)amino)-4-methoxyphenyl)-4-morpholinobut-2-enamide] | ≥ 250 nM | < 51 nM | 51 to 100 nM | ≥ 250 nM | – | –
C/C=C/C(=O)Nc1ccc(OC)c(Nc2ncc(Cl)c(Nc3ccccc3P(C)(C)=O)n2)c1 [Example 5a, (E)-N-(3-((5-chloro-4-((2-(dimethylphosphoryl)phenyl)amino)pyrimidin-2-yl)amino)-4-methoxyphenyl)but-2-enamide] | – | ≥ 250 nM | ≥ 250 nM | ≥ 250 nM | ≥ 250 nM | –
C#CC(=O)Nc1ccc(OC)c(Nc2ncc(Cl)c(Nc3ccccc3P(C)(C)=O)n2)c1 [Example 6a, N-(3-((5-chloro-4-((2-(dimethylphosphoryl)phenyl)amino)pyrimidin-2-yl)amino)-4-methoxyphenyl)propiolamide] | < 51 nM | < 51 nM | < 51 nM | ≥ 250 nM | ≥ 250 nM | –
C=CS(=O)(=O)Nc1ccc(OC)c(Nc2ncc(Cl)c(Nc3ccccc3P(C)(C)=O)n2)c1 [Example 7, N-(3-((5-chloro-4-((2-(dimethylphosphoryl)phenyl)amino)pyrimidin-2-yl)amino)-4-methoxyphenyl)ethenesulfonamide] | < 51 nM | < 51 nM | < 51 nM | ≥ 250 nM | – | –
C=C(CNc1ccc(OC)c(Nc2ncc(Cl)c(Nc3ccccc3P(C)(C)=O)n2)c1)C(=O)OC [Example 16, methyl 2-(((3-((5-chloro-4-((2-(dimethylphosphoryl)phenyl)amino)pyrimidin-2-yl)amino)-4-methoxyphenyl)amino)methyl)acrylate] | ≥ 250 nM | < 51 nM | 101 to 250 nM | ≥ 250 nM | – | –
C=CC(=O)Nc1ccc(OC)c(Nc2nc(Nc3ccccc3P(C)(C)=O)c3c(F)c[nH]c3n2)c1 [Example 23, N-(3-((4-((2-(dimethylphosphoryl)phenyl)amino)-5-fluoro-7H-pyrrolo[2,3-d]pyrimidin-2-yl)amino)-4-methoxyphenyl)acrylamide] | ≥ 250 nM | ≥ 250 nM | 101 to 250 nM | ≥ 250 nM | ≥ 250 nM | –
